± gives the standard deviation of the averaged measurements.

Compound in one assay: Cn1ncnc1[C@H]1c2n[nH]c(=O)c3cc(F)cc(c23)N[C@@H]1c1ccc(F)cc1 [BMN-673]
Description: surviving fraction relative to DMSO-only wells; higher = less growth inhibition. The note with it: exposure time: 5 days. In outline:
(§1)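 Continuous five-day exposure to inhibitors at 0.5, 1, 5, 10, 50, 100, 500 and 1000 nM started 24 hours after log-phase tumour cell lines were seeded at 250–500 cells per well in 384-well plates. Luminescence was read after 10 minutes at room temperature. Viability is given as surviving fraction, meaning CellTiter-Glo luminescence normalised to the median of DMSO-only wells.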

Compound in assay [1]: C[C@H](CN(C)C)Oc1nc(Nc2cc3cccc(Cl)c3cn2)cnc1C#N
The assay is described as above. The note with it: exposure time: 5 days. In outline:
as §1

SNU475 LIVER: the surviving fraction is 1.02 ± 0.034 with BMN-673 (0.5 nM); 1.01 ± 0.097 with BMN-673 (1 nM); 0.763 ± 0.47 in the assay with BMN-673 (5 nM); 0.99 ± 0.032 in the assay with BMN-673 (10 nM); 0.882 ± 0.087 in the assay with BMN-673 (50 nM); 0.851 ± 0.031 with BMN-673 (100 nM). For the same test system, the surviving fraction with BMN-673 (500 nM) was 0.643 ± 0.025; with BMN-673 (1000 nM) it was 0.508 ± 0.051; in assay [1] (0.5 nM), 0.989 ± 0.036; in assay [1] (1 nM), 1.03 ± 0.019; in assay [1] (5 nM), 1 ± 0.039; in assay [1] (10 nM) it was 1.037 ± 0.005. Besides, the surviving fraction in assay [1] (50 nM) came out at 1.02 ± 0.044; in assay [1] (100 nM), 0.972 ± 0.04; in assay [1] (500 nM), 0.968 ± 0.024; in assay [1] (1000 nM) it was 0.918 ± 0.024.
On to SKBR3 BREAST, for which the surviving fraction with BMN-673 (0.5 nM) was found to be 1.154 ± 0.0069; in the assay with BMN-673 (1 nM), 1.11 ± 0.12; in the assay with BMN-673 (5 nM), 0.863 ± 0.15; with BMN-673 (10 nM) it was 0.881 ± 0.044; with BMN-673 (50 nM), 0.774 ± 0.075; with BMN-673 (100 nM), 0.575 ± 0.078. The surviving fraction is 0.492 ± 0.041 in the assay with BMN-673 (500 nM); 0.481 ± 0.014 with BMN-673 (1000 nM); 1.04 ± 0.066 in assay [1] (0.5 nM); 0.967 ± 0.066 in assay [1] (1 nM); 0.881 ± 0.058 in assay [1] (5 nM); 0.843 ± 0.063 in assay [1] (10 nM). Also, the surviving fraction stood at 1.06 ± 0.061 in assay [1] (50 nM), 0.91 ± 0.18 in assay [1] (100 nM), 0.667 ± 0.08 in assay [1] (500 nM) and 0.344 ± 0.019 in assay [1] (1000 nM).
With SCC36 HEADNECK, the surviving fraction with BMN-673 (0.5 nM) worked out at 1.13 ± 0.041; with BMN-673 (1 nM) it was 0.988 ± 0.087; with BMN-673 (5 nM), 0.95 ± 0.15; with BMN-673 (10 nM), 0.886 ± 0.025; with BMN-673 (50 nM) it was 0.77 ± 0.089; with BMN-673 (100 nM) it was 0.586 ± 0.0076. In addition, the surviving fraction in the assay with BMN-673 (500 nM) stood at 0.436 ± 0.056; with BMN-673 (1000 nM), 0.352 ± 0.07; in assay [1] (0.5 nM), 1.05 ± 0.03; in assay [1] (1 nM) it was 1.07 ± 0.038; in assay [1] (5 nM), 0.991 ± 0.065; in assay [1] (10 nM), 1.15 ± 0.055. The surviving fraction in assay [1] (50 nM) came out at 1.07 ± 0.041; in assay [1] (100 nM), 1.13 ± 0.042; in assay [1] (500 nM), 0.427 ± 0.053; in assay [1] (1000 nM), 0.313 ± 0.017.
As for CAL72 BONE, the surviving fraction stood at 1.08 ± 0.13 in the assay with BMN-673 (0.5 nM); 1.07 ± 0.027 with BMN-673 (1 nM); 1.07 ± 0.018 with BMN-673 (5 nM); 1.09 ± 0.09 in the assay with BMN-673 (10 nM); 1.07 ± 0.082 with BMN-673 (50 nM); 0.973 ± 0.22 with BMN-673 (100 nM). Besides, the surviving fraction was 0.776 ± 0.19 in the assay with BMN-673 (500 nM); 0.509 ± 0.21 with BMN-673 (1000 nM); 1.06 ± 0.1 in assay [1] (0.5 nM); 1.08 ± 0.13 in assay [1] (1 nM); 1.06 ± 0.099 in assay [1] (5 nM); 1.03 ± 0.12 in assay [1] (10 nM). Further, the surviving fraction in assay [1] (50 nM) worked out at 1.09 ± 0.1; in assay [1] (100 nM), 0.981 ± 0.12; in assay [1] (500 nM), 0.402 ± 0.076; in assay [1] (1000 nM) it was 0.137 ± 0.037.
Turning to LNCAP PROSTATE, the surviving fraction with BMN-673 (0.5 nM) came to 0.85 ± 0.052; with BMN-673 (1 nM) it was 0.849 ± 0.05; with BMN-673 (5 nM), 0.604 ± 0.059; with BMN-673 (10 nM), 0.407 ± 0.037; in the assay with BMN-673 (50 nM), 0.297 ± 0.015; in the assay with BMN-673 (100 nM), 0.254 ± 0.0095. Further, the surviving fraction came out at 0.181 ± 0.014 with BMN-673 (500 nM); 0.165 ± 0.022 in the assay with BMN-673 (1000 nM); 0.913 ± 0.085 in assay [1] (0.5 nM); 0.863 ± 0.11 in assay [1] (1 nM); 0.863 ± 0.015 in assay [1] (5 nM); 0.92 ± 0.05 in assay [1] (10 nM). Moreover, the surviving fraction was found to be 0.85 ± 0.064 in assay [1] (50 nM), 0.855 ± 0.041 in assay [1] (100 nM), 0.549 ± 0.047 in assay [1] (500 nM) and 0.464 ± 0.036 in assay [1] (1000 nM).
Consider A549 LUNG, for which the surviving fraction with BMN-673 (0.5 nM) stood at 1.08 ± 0.026; in the assay with BMN-673 (1 nM), 1.1 ± 0.014; with BMN-673 (5 nM), 1.08 ± 0.033; with BMN-673 (10 nM), 1.07 ± 0.028; with BMN-673 (50 nM), 1.13 ± 0.08; with BMN-673 (100 nM), 1.1 ± 0.025. Further, the surviving fraction with BMN-673 (500 nM) was 1.05 ± 0.043; with BMN-673 (1000 nM) it was 0.972 ± 0.048; in assay [1] (0.5 nM), 1.04 ± 0.03; in assay [1] (1 nM), 1.02 ± 0.02; in assay [1] (5 nM), 1.02 ± 0.024; in assay [1] (10 nM), 0.994 ± 0.018. For the same test system, the surviving fraction in assay [1] (50 nM) was 1.09 ± 0.039; in assay [1] (100 nM) it was 1.06 ± 0.039; in assay [1] (500 nM), 0.967 ± 0.02; in assay [1] (1000 nM) it was 0.601 ± 0.027.
On to SCC90 HEADNECK, for which the surviving fraction was 1.05 ± 0.046 with BMN-673 (0.5 nM); 1.02 ± 0.031 in the assay with BMN-673 (1 nM); 1.01 ± 0.067 with BMN-673 (5 nM); 1.02 ± 0.059 with BMN-673 (10 nM); 0.813 ± 0.04 with BMN-673 (50 nM); 0.8 ± 0.13 with BMN-673 (100 nM). For the same test system, the surviving fraction was found to be 1.17 ± 0.15 with BMN-673 (500 nM); 1.15 ± 0.033 with BMN-673 (1000 nM); 1.05 ± 0.08 in assay [1] (0.5 nM); 1.02 ± 0.082 in assay [1] (1 nM); 1.02 ± 0.09 in assay [1] (5 nM); 0.936 ± 0.1 in assay [1] (10 nM). Further, the surviving fraction in assay [1] (50 nM) is 0.991 ± 0.038; in assay [1] (100 nM), 0.911 ± 0.034; in assay [1] (500 nM), 0.189 ± 0.03; in assay [1] (1000 nM), 0.215 ± 0.021.
With SUM44 BREAST, the surviving fraction turned out to be 1.16 ± 0.29 with BMN-673 (0.5 nM); 1.02 ± 0.16 in the assay with BMN-673 (1 nM); 0.976 ± 0.12 in the assay with BMN-673 (5 nM); 0.798 ± 0.029 with BMN-673 (10 nM); 1.03 ± 0.21 in the assay with BMN-673 (50 nM); 0.98 ± 0.15 with BMN-673 (100 nM). Also, the surviving fraction is 1.09 ± 0.2 in the assay with BMN-673 (500 nM); 0.988 ± 0.11 in the assay with BMN-673 (1000 nM); 1.14 ± 0.37 in assay [1] (0.5 nM); 1.16 ± 0.3 in assay [1] (1 nM); 1.24 ± 0.33 in assay [1] (5 nM); 1.29 ± 0.47 in assay [1] (10 nM). For the same test system, the surviving fraction in assay [1] (50 nM) was determined as 1.23 ± 0.4; in assay [1] (100 nM), 0.918 ± 0.25; in assay [1] (500 nM), 0.284 ± 0.056; in assay [1] (1000 nM), 0.268 ± 0.066.
As to MHM BONE, the surviving fraction in the assay with BMN-673 (0.5 nM) was determined as 1.03 ± 0.047; with BMN-673 (1 nM), 1 ± 0.035; with BMN-673 (5 nM) it was 1.01 ± 0.048; with BMN-673 (10 nM), 1.01 ± 0.051; with BMN-673 (50 nM), 0.997 ± 0.041; with BMN-673 (100 nM), 0.981 ± 0.0079. Moreover, the surviving fraction in the assay with BMN-673 (500 nM) worked out at 0.868 ± 0.017; with BMN-673 (1000 nM), 0.782 ± 0.012; in assay [1] (0.5 nM) it was 1.02 ± 0.031; in assay [1] (1 nM) it was 1.03 ± 0.012; in assay [1] (5 nM), 1.04 ± 0.026; in assay [1] (10 nM), 1.07 ± 0.06. In addition, the surviving fraction was 1.031 ± 0.0078 in assay [1] (50 nM), 1.05 ± 0.02 in assay [1] (100 nM), 1.063 ± 0.0031 in assay [1] (500 nM) and 0.999 ± 0.018 in assay [1] (1000 nM).
